Results on one compound are retold here after US8932594B2, “Adjuvants and methods of use” (The Scripps Research Institute, priority 2006, dated 2015).

In one experiment the target is Vα14/2Cβ TCR. The settings on record: previously reported, Cantu et al. 2003; read-out: affinity of the TCR for CD1d-lipid complex; cited from earlier work.
For experiment [1], the system named is lymphocytic choriomeningitis virus (LCMV). The class given is in vivo, C57BI/6 mice. The note with it: 1 μg intravenous before 10^6 PFU LCMVArm, day 8 post-infection, intracellular IFN-γ.
In a further experiment the test system is C57BI/6 mice. Kind of experiment: Serum cytokines after intravenous injection, ELISA. The settings on record: 1 μg intravenous, at 24 hours. It is filed as in vivo. As for the experimental part:
In vivo, following intravenous injection of 1 μg of positive control compound, αGalCer, or PBS-32, IFN-γ production in the serum of C57BI/6 mice was measured by ELISA and was very similar for both compounds (2500 pg/ml and 1500 pg/ml at 24 hours, respectively). IL-4 was undetectable following PBS-32 injection. […] At eight hours post-injection, PBS-32 induced 600 pg/ml IFN-γ.

The subject of another experiment is splenic DCs. In words: Induction of DC maturation in vivo, FACS of splenic cells. The note with it: 1 μg intravenous, 24 hours; CD11c+/CD8+ and CD11c+/CD8− cells. Also noted: species or system mice. As for the experimental part:
Mice were injected with α-GalCer, PBS-31 and PBS-32 and DC differentiation was examined in splenic DCs by analyzing cell surface marker expression.
Three mice in each group were injected intravenously with 1 μg lipid or vehicle alone. At 24 hours post-injection, CD1d expression was examined on splenic B cells (B220+), macrophages (CD11b+) and DCs (CD11c+) by FACS analysis using a FACScalibur machine and FlowJo analysis software.
The maturation of DCs was analyzed by measuring expression of CD40, CD80, CD86, and MHC class II on CD11c^+/CD8^+ and CD11c^+/CD8^− cells (FIG. 8). […] PBS-32 and αGalCer reached maximal induction between 0.1 and 1 μg (data not shown).
Induction of DC maturation was unaffected in MyD88^−/− and MyD88^−/−TRIF^−/− knock out animals in which the Toll-like receptor pathway is partially, or totally impaired, respectively (data not shown). The CD1d-dependence was confirmed by injecting CD1d^−/− mice with the lipids.

Turning to `CCCCCCCCCCCCCCCCCCCCCCCCCC(=O)N[C@@H](CO[C@H]1O[C@H](CO)[C@H](O)[C@H](O)[C@H]1O)[C@H](O)[C@H](O)CCCCCCCCCCCCCC` [αGalCer, α-galactosylceramide, reference compound], the Kd at Vα14/2Cβ TCR was 30 nM. Further, in experiment [1], the “anti-LCMV CD4+ T cell response (GP61, NP309)” value is given as “unchanged” and the “anti-LCMV CD8+ T cell response (GP33, NP396, GP276)” value was “significantly increase”. Further, in the experiment on C57BI/6 mice, the “IFN-γ production in the serum” value came to 2500 pg/mL. Also, the “DC phenotype (CD40, CD80, CD86, MHC class II expression)” value in the experiment on splenic DCs is reported as “mature phenotype”.
